Data on 21 compounds can be found in ChEMBL document CHEMBL3627645, “Synthesis and activities of new indolopyrrolobenzodiazepine derivatives toward acute myeloid leukemia cells” (Bioorg Med Chem, 2015).

Data set [1] concerns the target T1, Serine/threonine-protein kinase pim-1 (Homo sapiens, UniProt P11309). Kind of data set: Inhibition of human Pim-1 using RSRHSSYPAGT as substrate assessed as residual activity at 1 uM measured for 30 mins in presence of [gamma-33P]-ATP relative to control.
Target sequence in this assay (P11309 whole entry, looked up, the tested form may be a part): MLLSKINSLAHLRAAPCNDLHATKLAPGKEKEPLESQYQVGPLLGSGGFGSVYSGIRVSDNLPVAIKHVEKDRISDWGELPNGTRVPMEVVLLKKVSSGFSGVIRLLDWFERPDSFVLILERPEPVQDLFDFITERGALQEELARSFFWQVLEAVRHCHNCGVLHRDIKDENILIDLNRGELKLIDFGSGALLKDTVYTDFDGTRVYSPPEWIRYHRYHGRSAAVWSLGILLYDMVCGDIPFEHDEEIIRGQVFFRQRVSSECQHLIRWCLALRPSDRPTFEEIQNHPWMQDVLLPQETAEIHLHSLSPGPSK
The test system of data set [2] is IPC81. Kind of data set: Induction of apoptosis in rat IPC81 cells assessed as chromatin condensation and fragmentation at 100 uM after 72 hrs by Hoechst 33342 staining-based visual and UV microscopic analysis. The format is functional, cell-based.
In data set [3] the test system is IPC81. Kind of data set: Induction of apoptosis in rat IPC81 cells assessed as chromatin condensation and fragmentation at 10 to 100 uM after 48 to 72 hrs by Hoechst 33342 staining-based visual and UV microscopic analysis. Format: functional, cell-based.
The target of data set [4] is T2, Serine/threonine-protein kinase pim-3 (Homo sapiens, UniProt Q86V86). Kind of data set: Inhibition of human Pim-3 using RSRHSSYPAGT as substrate assessed as residual activity at 1 uM measured for 30 mins in presence of [gamma-33P]-ATP relative to control.
The subject of data set [5] is NRK. The data set can be described thus: Induction of apoptosis in NRK cells assessed as chromatin condensation and fragmentation at 10 to 100 uM after 48 hrs by Hoechst 33342 staining-based UV-vis microscopic analysis. Format: cell-based. As to conditions: rat.
Data set [6] concerns IPC81. The data set can be described thus: Induction of apoptosis in rat IPC81 cells overexpressing Bcl-2 assessed as chromatin condensation and fragmentation at 10 to 100 uM after 48 hrs by Hoechst 33342 staining-based visual and UV microscopic analysis. The format is functional, cell-based.
Data set [7] has as its target T2, Serine/threonine-protein kinase pim-3. The data set can be described thus: Inhibition of human Pim-3 using RSRHSSYPAGT as substrate assessed as residual activity at 10 uM measured for 30 mins in presence of [gamma-33P]-ATP relative to control.
Data set [8] addresses T1, Serine/threonine-protein kinase pim-1. Kind of data set: Inhibition of human Pim-1 using RSRHSSYPAGT as substrate assessed as residual activity at 10 uM measured for 30 mins in presence of [gamma-33P]-ATP relative to control.
Target sequence in this assay (P11309 whole entry, looked up, the tested form may be a part): as the sequence (P11309 whole entry, looked up, the tested form may be a part) above
For data set [9] the target is unchanged. Kind of data set: Inhibition of human Pim-1 using RSRHSSYPAGT as substrate measured for 30 mins in presence of [gamma-33P]-ATP.
Target sequence in this assay (P11309 whole entry, the tested form may be a part): as the sequence (P11309 whole entry, looked up, the tested form may be a part) above
Data set [10] deals with T2, Serine/threonine-protein kinase pim-3. The data set can be described thus: Inhibition of human Pim-3 using RSRHSSYPAGT as substrate measured for 30 mins in presence of [gamma-33P]-ATP.
The target is the same in data set [11]. The data set can be described thus: Inhibition of Pim-3 (unknown origin).
The target in data set [12] is T1, Serine/threonine-protein kinase pim-1. The data set can be described thus: Inhibition of Pim-1 (unknown origin).
Target sequence in this assay (P11309 whole entry, the tested form may be a part): as the sequence (P11309 whole entry, looked up, the tested form may be a part) above

Calls of active or inactive are those of the source. No cut-off for these calls is given here.

On to `O=Cc1cn2c3c1ccc1c4ccccc4n(c13)CC(OCCCN1CCCCC1)C2` (centres undefined), for which the Activity in [1] was 66%; in data set [4], 45%; in data set [5], “Non-toxic”; in [7], 20%; in data set [8] it was 31%. For the same compound, the result in data set [2], in data set [3] and in data set [6] was Active.

For `O=Cc1cn2c3c1ccc1c4ccccc4n(c13)CC(OCCO)C2` (centres undefined), the IC50 (commonly the concentration needed to halve the response being measured) in data set [9] stood at 1100 nM; in data set [10], 700 nM. Also, the Activity in data set [1] is 44%; in data set [4] it was 30%; in data set [5], “Toxic”; in [7], 10.8%; in data set [8] it was 9%. The outcome in data set [2] and in data set [3] was Active. Moreover, the result in data set [6] was inactive.

As to `Cc1ccc(S(=O)(=O)NC2Cn3cc(C=O)c4ccc5c6ccccc6n(c5c43)C2)cc1` (centres undefined), the Activity in data set [1] amounted to 52%; in data set [4], 55%; in data set [7] it was 34%; in [8] it was 32%.

Take `O=Cc1cn2c3c1ccc1c4ccccc4n(c13)CC(OCCN1CCCC1)C2` (centres undefined): the Activity was determined as 84% in data set [1], 48% in data set [4], 16.4% in data set [7] and 17.8% in data set [8].

For `O=Cc1cn2c3c1ccc1c4ccccc4n(c13)CC(O)C2` (centres undefined), the results for the IC50 in data set [9] and in [10] were 1400 nM and 380 nM, respectively. The Activity was 38% in data set [1], 13.3% in data set [4], 3.5% in [7] and 5% in [8].

Take `O=Cc1cn2c3c1ccc1c4ccccc4n(c13)CC(OCCN1CCOCC1)C2` (centres undefined): the Activity in [1] came out at 57%; in [4] it was 65.8%; in data set [7], 35%; in data set [8] it was 34%.

Turning to `O=Cc1cn2c3c1ccc1c4ccccc4n(c13)CC(OCCCO)C2` (centres undefined), the Activity in data set [1] turned out to be 54.9%; in [4], 49.6%; in data set [7], 16%; in data set [8], 21%.

Turning to `Cc1ccc(S(=O)(=O)OCCOC2Cn3cc(C=O)c4ccc5c6ccccc6n(c5c43)C2)cc1` (centres undefined), the Activity amounted to 78% in data set [1], 65% in data set [4], 80% in [7] and 102% in data set [8].

Regarding `N#CCOC1Cn2cc(C=O)c3ccc4c5ccccc5n(c4c32)C1` (centres undefined), the values for the IC50 in data set [9] and in data set [10] were 390 nM and 190 nM, respectively. Also, the Activity was 9.5% in data set [1]; 10.3% in data set [4]; “Toxic” in data set [5]; 5% in [7]; 1.9% in data set [8]. In addition, the result in [3] and in [6] was inactive.

On to `O=Cc1cn2c3c1ccc1c4ccccc4n(c13)CC(OCCCN1CCCC1)C2` (centres undefined), for which the Activity worked out at 58% in data set [1], 54% in data set [4], 18.3% in data set [7] and 24.1% in data set [8].

On to `O=Cc1cn2c3c1ccc1c4ccccc4n(c13)CC(OCCN1CCCCC1)C2` (centres undefined), for which the Activity amounted to 82% in [1], 54% in data set [4], 22.2% in data set [7] and 30% in data set [8].

Take `O=Cc1cn2c3c1ccc1c4ccccc4n(c13)CCCCC2`: the IC50 was 26 nM in data set [11] and 9 nM in data set [12].

As for `CCN(CC)CCOC1Cn2cc(C=O)c3ccc4c5ccccc5n(c4c32)C1` (centres undefined), the Activity in data set [1] was 78%; in data set [4], 59%; in data set [7], 28%; in data set [8], 35%.

With `O=Cc1cn2c3c1ccc1c4ccccc4n(c13)CC(OCCCBr)C2` (centres undefined), the IC50 in data set [9] came out at 740 nM; in data set [10] it was 340 nM. The Activity in data set [1] was 54%; in data set [4] it was 40%; in data set [5] it was “Non-toxic”; in [7] it was 11%; in data set [8], 19%. In addition, the outcome in data set [3] and in data set [6] was inactive.

For `O=Cc1cn2c3c1ccc1c4ccccc4n(c13)CCC2`, the IC50 amounted to 50 nM in [11] and 42 nM in data set [12].

As to `O=Cc1cn2c3c1ccc1c4ccccc4n(c13)CC(OCCCN1CCOCC1)C2` (centres undefined), the Activity is 75% in data set [1], 70% in data set [4], 24% in data set [7] and 28% in [8].

`CN1CCN(CCOC2Cn3cc(C=O)c4ccc5c6ccccc6n(c5c43)C2)CC1` (centres undefined): the Activity in data set [1] worked out at 94%; in data set [4], 60%; in [7], 28%; in data set [8] it was 35%.

Consider `Cc1ccc(S(=O)(=O)OCCCOC2Cn3cc(C=O)c4ccc5c6ccccc6n(c5c43)C2)cc1` (centres undefined), for which the Activity in data set [1] was found to be 81%; in data set [4], 70.8%; in data set [7] it was 79%; in [8], 94%.

Turning to `CS(=O)(=O)OC1Cn2cc(C=O)c3ccc4c5ccccc5n(c4c32)C1` (centres undefined), the half-maximal inhibitory concentration (IC50) in [9] is 1560 nM; in [10] it was 600 nM. The Activity came out at 24% in [1], 25% in [4], 8.1% in [7] and 6.6% in data set [8].

For the compound `CCN(CC)CCCOC1Cn2cc(C=O)c3ccc4c5ccccc5n(c4c32)C1` (centres undefined), the Activity in data set [1] came to 71.6%; in [4], 60.8%; in [7] it was 24%; in data set [8], 29%.

As for `CN1CCN(CCCOC2Cn3cc(C=O)c4ccc5c6ccccc6n(c5c43)C2)CC1` (centres undefined), the Activity is 58.2% in data set [1], 51% in data set [4], 26% in data set [7] and 22.4% in data set [8].
